# Data published in patent US10604512B2, “3-(1H-indol-2-yl)-1H-indazoles and therapeutic uses thereof” (Samumed, LLC, priority 2015, dated 2020).
# pEC50: −log10 of the molar value.
# How the values were obtained:
# Assay type in all cases: cell-based
# [1] = system: SW480 colon cancer cells; assay: Cell viability assay (CellTiter-Blue) in SW480 colon cancer cells; conditions: Homo sapiens, 96 h, four days; for inhibition at 10 µM: given where EC50 >10 μM, read-out: percent inhibition at 10 μM; for pEC50: CellTiter-Blue
# Method in brief: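 Approximately 2×10^3 SW480 cells per well are seeded with compound (8 points, threefold steps, top 10 μM) and incubated four days at 37 °C. CellTiter-Blue is then added for about 3 h and fluorescence read. Non-linear regression gives EC50; for values beyond 10 μM, percent inhibition at that concentration is listed.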
# [2] = system: Primary human fibroblasts derived from IPF patients (LL29 cells) treated with TGF-β1; assay: Inhibition of the fibrotic process: αSMA staining in TGF-β1-treated primary human fibroblasts from IPF patients (LL29 cells); conditions: Fibroblast, 96 h; for pEC50: % αSMA-positive LL29 cells, TGF-β1 20 ng/mL, 4 days
# Method in brief: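 LL29 IPF-patient fibroblasts in 1% FBS stimulated with TGF-β1 (20 ng/mL) and compound (10 μM–1.87 nM, 0.1% DMSO) for 4 days at 37 °C. SYTOX-positive cells excluded; % αSMA-positive cells imaged, normalized to TGF-β1/DMSO wells; EC50 by nonlinear regression, else % inhibition at 10 μM.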
# [3] = system: Wnt activity (Sp5-Luc reporter, TCF/LEF binding sites) in SW480 colon carcinoma cells; assay: Screening assay for Wnt activity: Sp5-Luc reporter gene assay in stably transduced SW480 colon carcinoma cells; conditions: Homo sapiens, overnight incubation, 10-point curve from 10 μM
# Method in brief: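 SW480 cells stably transduced with a luciferase reporter driven by an Sp5 promoter of eight TCF/LEF sites were plated at 4,000 cells/well in 1% FBS medium. They were exposed overnight at 37° C to a 10-point 1:3 dilution series from 10 μM (0.1% DMSO). Luminescence was normalized to DMSO for four-parameter EC50, or percent inhibition at 10 μM.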
Compound,pEC50 [1],pEC50 [3],inhibition at 10 µM [1] [%],pEC50 [2],"inhibition at 10 µM ([2]; at 10 μM, given where EC50 >10 μM, αSMA, LL29 cells, TGF-β1, 4 days, read-out: percent inhibition at 10 μM) [%]"
"O=C(Nc1cncc(-c2ccc3[nH]nc(-c4cc5c(-c6ccsc6)cccc5[nH]4)c3c2)c1)C1CCCCC1 [Compound 303, N-(5-(3-(4-(Thiophen-3-yl)-1H-indol-2-yl)-1H-indazol-5-yl)pyridin-3-yl) cyclohexanecarboxamide]",< 5.00,5.94,15,5.55,
"O=C(Cc1ccccc1)Nc1cncc(-c2ccc3[nH]nc(-c4cc5c(-c6ccoc6)cccc5[nH]4)c3c2)c1 [Compound 318, N-(5-(3-(4-(Furan-3-yl)-1H-indol-2-yl)-1H-indazol-5-yl)pyridin-3-yl)-2-phenylacetamide]",< 5.00,5.95,31.9,6.07,
"c1cc(-c2ccoc2)c2cc(-c3n[nH]c4ccc(-c5cncc(CNCC6CCCC6)c5)cc34)[nH]c2c1 [Compound 333, 1-Cyclopentyl-N-((5-(3-(4-(furan-3-yl)-1H-indol-2-yl)-1H-indazol-5-yl)pyridin-3-yl)methyl)methanamine]",< 5.00,5.42,19.1,5.43,

# More lines, main results first:
pEC50 [1],pEC50 [3],Compound,inhibition at 10 µM [1] [%],pEC50 [2],"inhibition at 10 µM ([2]; at 10 μM, given where EC50 >10 μM, αSMA, LL29 cells, TGF-β1, 4 days, read-out: percent inhibition at 10 μM) [%]"
< 5.00,5.34,"Fc1cccc(-c2cccc3[nH]c(-c4n[nH]c5ccc(-c6ccncc6)cc45)cc23)c1 [Compound 18, 3-(4-(3-Fluorophenyl)-1H-indol-2-yl)-5-(pyridin-4-yl)-1H-indazole]",10.2,5.26,
6.01,6.34,"CC(C)(C)CC(=O)Nc1cncc(-c2ccc3[nH]nc(-c4cc5c(-c6ccsc6)cccc5[nH]4)c3c2)c1 [Compound 296, 3,3-Dimethyl-N-(5-(3-(4-(thiophen-3-yl)-1H-indol-2-yl)-1H-indazol-5-yl)pyridin-3-yl)butanamide]",,< 5.00,21
6.53,7.40,"Nc1cncc(-c2ccc3[nH]nc(-c4cc5c(-c6ccoc6)cccc5[nH]4)c3c2)c1 [Compound 311, 5-(3-(4-(Furan-3-yl)-1H-indol-2-yl)-1H-indazol-5-yl)pyridin-3-amine]",,5.30,
